# Measurements taken from ChEMBL document CHEMBL1201862, “PubChem BioAssay data set” (2004).
# Values joined by “and” are separate entries in the source; they are usually repeats but may differ in a detail not shown here. Equal entries are not always repeated. Active and inactive are the calls of the source.
# Columns and labels:
# Protein skinhead-1 = molecular target: T1, Protein skinhead-1 (Caenorhabditis elegans, UniProt P34707); format: functional
# T1 sequence (P34707 whole entry): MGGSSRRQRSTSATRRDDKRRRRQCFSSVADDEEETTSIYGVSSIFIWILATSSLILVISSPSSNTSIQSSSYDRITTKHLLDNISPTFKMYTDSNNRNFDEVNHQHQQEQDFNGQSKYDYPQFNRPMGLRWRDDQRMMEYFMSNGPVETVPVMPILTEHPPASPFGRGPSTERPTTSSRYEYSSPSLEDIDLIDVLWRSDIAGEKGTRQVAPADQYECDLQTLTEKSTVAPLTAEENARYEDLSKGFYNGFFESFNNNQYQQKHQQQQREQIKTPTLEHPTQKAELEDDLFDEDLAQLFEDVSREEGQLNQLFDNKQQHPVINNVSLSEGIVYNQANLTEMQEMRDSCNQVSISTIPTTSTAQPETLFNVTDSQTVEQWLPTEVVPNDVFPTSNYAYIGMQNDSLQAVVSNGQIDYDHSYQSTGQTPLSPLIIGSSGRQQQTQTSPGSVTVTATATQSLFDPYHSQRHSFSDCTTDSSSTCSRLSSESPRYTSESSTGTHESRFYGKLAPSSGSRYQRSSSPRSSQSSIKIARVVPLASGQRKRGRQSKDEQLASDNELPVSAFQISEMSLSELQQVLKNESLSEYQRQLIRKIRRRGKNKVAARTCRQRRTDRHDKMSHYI
# [1] = molecular target: T2, Histone-lysine N-methyltransferase NSD2 (Homo sapiens, UniProt O96028); format: biochemical
# T2 sequence (O96028 whole entry): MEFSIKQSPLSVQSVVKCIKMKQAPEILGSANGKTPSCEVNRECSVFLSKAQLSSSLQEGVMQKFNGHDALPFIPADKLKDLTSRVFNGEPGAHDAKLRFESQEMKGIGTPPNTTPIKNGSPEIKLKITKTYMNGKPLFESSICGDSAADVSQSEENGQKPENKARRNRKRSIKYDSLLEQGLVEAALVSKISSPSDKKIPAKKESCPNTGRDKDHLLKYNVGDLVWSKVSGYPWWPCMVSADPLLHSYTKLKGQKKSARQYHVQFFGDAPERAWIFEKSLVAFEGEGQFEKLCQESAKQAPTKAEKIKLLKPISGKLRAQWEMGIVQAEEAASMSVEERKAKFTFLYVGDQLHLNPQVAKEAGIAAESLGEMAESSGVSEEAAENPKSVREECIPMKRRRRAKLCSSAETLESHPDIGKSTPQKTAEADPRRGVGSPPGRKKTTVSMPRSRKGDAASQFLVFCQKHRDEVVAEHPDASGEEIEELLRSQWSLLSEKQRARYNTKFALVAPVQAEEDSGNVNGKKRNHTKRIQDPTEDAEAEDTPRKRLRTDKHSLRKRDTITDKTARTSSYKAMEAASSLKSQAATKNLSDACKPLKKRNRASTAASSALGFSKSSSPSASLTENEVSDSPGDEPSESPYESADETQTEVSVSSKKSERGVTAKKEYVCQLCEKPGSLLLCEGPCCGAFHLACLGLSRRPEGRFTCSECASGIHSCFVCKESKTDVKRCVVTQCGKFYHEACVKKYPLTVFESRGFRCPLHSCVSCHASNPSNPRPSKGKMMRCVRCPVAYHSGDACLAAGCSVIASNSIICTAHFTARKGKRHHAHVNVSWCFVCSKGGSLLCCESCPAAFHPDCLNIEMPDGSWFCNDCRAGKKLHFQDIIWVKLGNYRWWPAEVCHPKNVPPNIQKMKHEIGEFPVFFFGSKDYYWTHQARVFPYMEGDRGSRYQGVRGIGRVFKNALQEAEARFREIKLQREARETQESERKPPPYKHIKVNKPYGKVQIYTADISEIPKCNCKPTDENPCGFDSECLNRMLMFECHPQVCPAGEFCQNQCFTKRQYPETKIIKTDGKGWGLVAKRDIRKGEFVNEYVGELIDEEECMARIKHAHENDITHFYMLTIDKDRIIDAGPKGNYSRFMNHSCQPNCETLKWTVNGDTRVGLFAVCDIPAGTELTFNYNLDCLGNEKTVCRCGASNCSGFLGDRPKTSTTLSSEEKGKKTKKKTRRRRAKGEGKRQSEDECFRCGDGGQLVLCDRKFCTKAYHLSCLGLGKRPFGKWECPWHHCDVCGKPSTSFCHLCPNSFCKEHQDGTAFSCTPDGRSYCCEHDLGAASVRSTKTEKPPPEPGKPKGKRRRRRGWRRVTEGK
# fMet-Leu-Phe receptor = molecular target: T3, fMet-Leu-Phe receptor (Homo sapiens, UniProt P21462); test: FPR ligands, dose response (AID 519); format: functional
# T3 sequence (P21462 whole entry): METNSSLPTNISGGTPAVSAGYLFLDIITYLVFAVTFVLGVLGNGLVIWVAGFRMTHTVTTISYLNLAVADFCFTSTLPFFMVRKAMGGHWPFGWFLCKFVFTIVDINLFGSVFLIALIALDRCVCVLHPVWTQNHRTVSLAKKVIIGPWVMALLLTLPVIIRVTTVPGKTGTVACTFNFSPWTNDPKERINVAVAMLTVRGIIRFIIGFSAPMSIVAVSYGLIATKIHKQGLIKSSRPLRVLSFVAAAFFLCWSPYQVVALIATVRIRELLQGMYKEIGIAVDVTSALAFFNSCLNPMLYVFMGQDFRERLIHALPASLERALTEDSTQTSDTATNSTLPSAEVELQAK
# Aminopeptidase N = molecular target: T4, Aminopeptidase N (Plasmodium falciparum FcB1/Columbia, UniProt O96935); test: P. falciparum M1AAP inhibitors, biochemical, fluorogenic H-Leu-NHMec substrate, 1536-well (AID 1445); set-up: species or system Plasmodium falciparum 3D7, 3D7
# T4 sequence (O96935 whole entry): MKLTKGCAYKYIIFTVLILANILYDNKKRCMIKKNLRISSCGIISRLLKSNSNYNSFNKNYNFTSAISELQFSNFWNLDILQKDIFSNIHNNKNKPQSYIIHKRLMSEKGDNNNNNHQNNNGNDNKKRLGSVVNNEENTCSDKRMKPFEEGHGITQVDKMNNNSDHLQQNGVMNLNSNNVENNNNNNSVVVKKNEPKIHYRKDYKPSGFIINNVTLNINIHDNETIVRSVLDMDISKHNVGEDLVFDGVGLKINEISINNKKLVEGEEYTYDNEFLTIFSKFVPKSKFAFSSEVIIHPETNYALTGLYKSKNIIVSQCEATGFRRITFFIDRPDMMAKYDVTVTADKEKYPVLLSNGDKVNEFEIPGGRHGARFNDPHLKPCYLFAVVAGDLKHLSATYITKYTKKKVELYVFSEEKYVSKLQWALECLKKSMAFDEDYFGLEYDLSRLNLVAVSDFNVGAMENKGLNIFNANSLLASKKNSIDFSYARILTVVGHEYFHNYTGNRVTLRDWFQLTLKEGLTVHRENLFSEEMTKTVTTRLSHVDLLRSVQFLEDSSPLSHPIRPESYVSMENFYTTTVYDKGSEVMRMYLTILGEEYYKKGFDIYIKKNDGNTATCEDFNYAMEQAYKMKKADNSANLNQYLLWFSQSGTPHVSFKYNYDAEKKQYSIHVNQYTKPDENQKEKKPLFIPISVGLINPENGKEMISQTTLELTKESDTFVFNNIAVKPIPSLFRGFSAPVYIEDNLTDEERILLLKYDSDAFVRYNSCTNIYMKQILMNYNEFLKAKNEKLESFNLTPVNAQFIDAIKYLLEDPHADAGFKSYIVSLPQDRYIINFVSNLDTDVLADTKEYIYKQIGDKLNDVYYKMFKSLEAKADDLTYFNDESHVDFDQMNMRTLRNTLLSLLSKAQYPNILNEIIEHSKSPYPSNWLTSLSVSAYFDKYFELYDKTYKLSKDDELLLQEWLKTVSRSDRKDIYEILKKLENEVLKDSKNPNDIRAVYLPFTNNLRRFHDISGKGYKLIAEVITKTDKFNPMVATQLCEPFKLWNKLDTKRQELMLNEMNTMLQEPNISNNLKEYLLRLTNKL
# Cytochrome P450 2C19 = Cytochrome P450 2C19 (Homo sapiens, UniProt P33261); test: Cytochrome panel assay with activity outcomes. Panel member name: p450-cyp2c19 Compounds with AC50 equal or less than 10 uM are considered active; format: functional; conditions: read-out: AC50
# Cytochrome P450 3A4 = Cytochrome P450 3A4 (Homo sapiens, UniProt P08684);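 note: CYP3A4 tested as one member of a cytochrome P450 panel screen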
# [2] = molecular target: T5, DNA repair and recombination protein RAD54-like (Homo sapiens, UniProt Q92698); test: inhibitors of human RAD54 branch migration, confirmation, biochemical, fluorescence, cherry-picked samples, dose series (AID 651657); format: functional
# T5 sequence (Q92698 whole entry): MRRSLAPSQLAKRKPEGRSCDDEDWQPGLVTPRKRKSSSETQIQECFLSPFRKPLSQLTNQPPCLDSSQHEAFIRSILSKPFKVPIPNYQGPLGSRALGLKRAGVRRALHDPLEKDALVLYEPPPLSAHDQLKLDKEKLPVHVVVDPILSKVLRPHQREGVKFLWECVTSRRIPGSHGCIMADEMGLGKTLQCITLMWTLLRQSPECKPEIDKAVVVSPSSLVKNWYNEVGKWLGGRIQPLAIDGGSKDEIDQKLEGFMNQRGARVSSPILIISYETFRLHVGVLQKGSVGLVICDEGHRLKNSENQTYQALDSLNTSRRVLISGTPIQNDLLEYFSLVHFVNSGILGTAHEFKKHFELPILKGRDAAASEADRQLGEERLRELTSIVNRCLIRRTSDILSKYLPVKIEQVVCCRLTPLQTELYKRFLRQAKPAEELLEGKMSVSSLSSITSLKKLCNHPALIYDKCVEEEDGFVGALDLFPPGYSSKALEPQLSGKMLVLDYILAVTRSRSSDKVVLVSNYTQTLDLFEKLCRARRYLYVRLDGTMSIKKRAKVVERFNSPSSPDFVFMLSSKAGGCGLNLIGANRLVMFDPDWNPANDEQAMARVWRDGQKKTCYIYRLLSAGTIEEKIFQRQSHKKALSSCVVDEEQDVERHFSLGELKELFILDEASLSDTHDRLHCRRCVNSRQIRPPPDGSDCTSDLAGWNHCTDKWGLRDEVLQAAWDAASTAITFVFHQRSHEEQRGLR
# Cytochrome P450 1A2 = molecular target: T6, Cytochrome P450 1A2 (Homo sapiens, UniProt P05177);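 note: PubChem cytochrome P450 panel assay, CYP1A2 panel member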
# T6 sequence (P05177 whole entry): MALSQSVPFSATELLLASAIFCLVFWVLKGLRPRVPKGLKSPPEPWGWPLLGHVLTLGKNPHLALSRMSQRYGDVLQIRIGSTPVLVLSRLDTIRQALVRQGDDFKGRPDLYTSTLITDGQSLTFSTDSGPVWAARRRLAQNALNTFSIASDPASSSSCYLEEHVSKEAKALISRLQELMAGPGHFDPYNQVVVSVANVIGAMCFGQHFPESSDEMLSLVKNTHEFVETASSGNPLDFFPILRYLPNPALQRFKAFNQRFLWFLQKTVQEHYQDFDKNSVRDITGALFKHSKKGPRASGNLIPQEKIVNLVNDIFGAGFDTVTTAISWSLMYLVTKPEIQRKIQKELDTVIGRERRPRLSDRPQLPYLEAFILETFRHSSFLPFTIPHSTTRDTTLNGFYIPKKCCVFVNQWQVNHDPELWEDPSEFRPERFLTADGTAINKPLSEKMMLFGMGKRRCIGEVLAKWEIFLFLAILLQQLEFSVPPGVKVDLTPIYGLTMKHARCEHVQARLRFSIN
# Cytochrome P450 2D6 = Cytochrome P450 2D6 (Homo sapiens, UniProt P10635);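 note: CYP2D6 member of a cytochrome P450 panel assay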
# Cytochrome P450 2D6, sequence (P10635 whole entry): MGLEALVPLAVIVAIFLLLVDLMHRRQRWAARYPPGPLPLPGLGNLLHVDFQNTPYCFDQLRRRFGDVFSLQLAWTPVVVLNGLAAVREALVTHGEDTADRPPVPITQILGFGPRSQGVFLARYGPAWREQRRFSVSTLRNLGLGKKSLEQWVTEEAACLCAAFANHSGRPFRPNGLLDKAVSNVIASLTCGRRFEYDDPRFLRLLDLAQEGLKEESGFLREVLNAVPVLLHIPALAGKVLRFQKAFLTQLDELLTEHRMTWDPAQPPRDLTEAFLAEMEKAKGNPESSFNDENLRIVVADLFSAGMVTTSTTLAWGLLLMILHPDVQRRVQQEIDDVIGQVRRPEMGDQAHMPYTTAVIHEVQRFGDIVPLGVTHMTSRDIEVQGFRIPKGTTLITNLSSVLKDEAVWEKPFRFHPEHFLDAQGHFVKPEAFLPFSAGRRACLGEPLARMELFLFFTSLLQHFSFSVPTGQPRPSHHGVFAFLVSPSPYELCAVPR
# Cytochrome P450 3A4, sequence (P08684 whole entry): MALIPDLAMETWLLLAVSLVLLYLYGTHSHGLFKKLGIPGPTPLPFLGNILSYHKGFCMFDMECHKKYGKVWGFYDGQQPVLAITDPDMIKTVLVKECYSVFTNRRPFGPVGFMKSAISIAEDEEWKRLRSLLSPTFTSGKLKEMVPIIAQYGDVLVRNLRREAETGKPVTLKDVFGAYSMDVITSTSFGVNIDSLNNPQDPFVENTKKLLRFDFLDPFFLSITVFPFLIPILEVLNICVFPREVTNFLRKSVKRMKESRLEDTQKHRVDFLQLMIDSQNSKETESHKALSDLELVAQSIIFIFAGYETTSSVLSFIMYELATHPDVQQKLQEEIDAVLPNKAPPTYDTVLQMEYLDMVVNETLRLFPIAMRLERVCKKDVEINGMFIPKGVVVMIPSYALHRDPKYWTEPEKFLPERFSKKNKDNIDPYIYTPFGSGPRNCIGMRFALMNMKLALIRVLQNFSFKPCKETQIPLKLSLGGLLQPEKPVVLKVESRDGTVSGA
# Cytochrome P450 2C19, sequence (P33261 whole entry): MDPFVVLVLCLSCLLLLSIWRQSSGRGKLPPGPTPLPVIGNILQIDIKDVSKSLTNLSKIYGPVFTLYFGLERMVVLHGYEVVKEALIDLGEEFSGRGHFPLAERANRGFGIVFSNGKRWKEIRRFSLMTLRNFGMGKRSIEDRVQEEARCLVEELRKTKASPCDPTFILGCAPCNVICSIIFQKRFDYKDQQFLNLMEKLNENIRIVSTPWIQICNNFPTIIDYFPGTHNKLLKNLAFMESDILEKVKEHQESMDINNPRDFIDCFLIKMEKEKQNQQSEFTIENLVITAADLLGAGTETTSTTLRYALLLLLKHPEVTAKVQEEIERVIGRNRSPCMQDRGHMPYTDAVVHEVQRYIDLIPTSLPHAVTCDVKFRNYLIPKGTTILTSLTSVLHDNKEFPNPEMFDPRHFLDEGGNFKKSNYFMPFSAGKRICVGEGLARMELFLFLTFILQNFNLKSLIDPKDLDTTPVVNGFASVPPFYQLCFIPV
IC50 (Protein skinhead-1),Ki (fMet-Leu-Phe receptor),Compound,other results
82.5 µM (inactive),–,COC(=O)c1ccc(-c2ccc(Cl)cc2)nc1C,–
–,–,CNCCC1Sc2ccccc2Oc2ccccc21 (stereo not given),AC50 [1]: > 20 µM (inactive)
33.5 µM (active),–,Clc1ccc2oc(SCc3cccnc3)nc2c1,–
–,> 66.7 µM (inactive),CCSc1nnc(NC(=O)CSc2nnc(Cc3cccn3C)n2CCc2ccccc2)s1,–
–,> 66.7 µM (inactive),CCOC(=O)CCn1nc(-c2ccc(Cl)cc2)cc1N,–
> 100 µM (inactive),–,O=C(Nc1ccc2nc(-c3ccccc3)oc2c1)c1ccco1,–
–,–,CCCN(CCC)CCCNC(=O)c1cc2cc3ccc(OC)cc3nc2o1,IC50 (Aminopeptidase N): 45.9 µM (active); AC50 (Cytochrome P450 2C19): 20 µM (inconclusive); AC50 (Cytochrome P450 3A4): 15.8 µM (inconclusive); AC50 [2]: 31.6 µM (active); AC50 (Cytochrome P450 1A2): 20 µM (inconclusive)
–,54.8 µM (inactive),O=C(C1=C(O)C(=O)N(CC2CCCO2)C1c1cccnc1)c1ccco1 (stereo not given),–
–,> 66.7 µM (inactive),CCOc1cc(C(=O)NCc2nnc(SCC(=O)OC)n2C)cc(OCC)c1OCC,–
> 100 µM (inactive),–,Cc1nn(C(=O)CCC(=O)NCc2cccc(F)c2)c2ccccc12,–
–,–,CCNCCC(=O)N1c2ccccc2Sc2ccc(C(F)(F)F)cc21,AC50 [1]: > 20 µM (inactive)
–,> 66.7 µM (inactive),CCc1nn2c(=O)cc(CSc3nc4sc5c(c4c(=O)n3C)CCCC5)nc2s1,–
–,–,O=C(COc1ccccc1)N/N=C/c1sc(=O)n(Cc2cccc(C(=O)O)c2)c1Cl,AC50 [1]: > 20 µM (inactive)

Compound,IC50 (Protein skinhead-1),Ki (fMet-Leu-Phe receptor),other results
Clc1ccccc1-c1nc(-c2ccncc2)no1 [PIFEXOLE],11.2 µM (active) and 18.8 µM (active),–,AC50 (Cytochrome P450 3A4): 2 µM (inconclusive); AC50 (Cytochrome P450 2D6): 3.16 µM (inconclusive)
